Values of other authors as cited in patent US10117956B2, “Radiolabeled active targeting pharmaceutical composition and the use thereof” (Institute of Nuclear Energy Research Atomic Energy Council, …, priority 2013, dated 2018).

Details: 30 minutes after injection

SMILES: O=C[C@H](O)[C@@H](O)[C@H](O)[C@H](O)CF [6-FDG, 6-fluoro-6-deoxy-D-glucose]
- concentration in the blood: 1.11 % ID/g
